Data set [1] deals with wild-type HAdV5. As to the kind of experiment: Virus yield reduction (burst assay, TCID50), HAdV5. It counts as cell-based. The settings on record: 50 μM, A549 cells, 48 h, yield with DMSO divided by yield with compound. On the procedure:
(§1) 1.8. Virus yield reduction. The effect of the active compounds on virus production was evaluated in a burst assay A549 cells were infected with wild-type HAdV5 or HAdV16 (MOI 100) in the presence or absence of 50 μM compounds. After 48 h, cells were harvested and subjected to three rounds of freeze/thaw. Serial dilutions of clarified lysates were titrated on A549 cells and TCID50 values were calculated using an endpoint dilution method.46

For data set [2], the system named is HAdV5-GFP. As to the kind of experiment: Plaque assay, HAdV5-GFP in 293β5 cells. In kind it is cell-based. The following applies: for Selectivity Index (SI) HAdV5: ratio CC50 to IC50, HAdV5; for IC50: read-out: IC50 HAdV5; for inhibition at 10 µM: read-out: Percentage of plaque formation inhibition, HAdV5-GFP, 10 μM, 293β5 cell line. The essentials: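 293β5 cells infected with HAdV5-GFP at 0.06 vp/cell for 2 h at 37° C. Then overlaid with agar/EMEM containing compound (5 to 1 μM stated range; screen run at 10 μM). After 7 days at 37° C., GFP plaques imaged and counted relative to DMSO control.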

For data set [3], the system named is HCMV (AD169). Description: HCMV infectivity assay by quantitative PCR. The following applies: Human betaherpesvirus 5, AD169, MRC5, MRC-5 cells, 72 h, qPCR, read-out: Inhibition of HCMV DNA replication. It counts as cell-based, human cytomegalovirus. On the procedure:
1.9. HCMV infectivity assay by quantitative PCR. […] After 72 h of incubation at 37° C., DNA was purified from the cell lysate with the QlAamp DNA Mini Kit (QIAGEN, Valencia, Calif.) following the manufacturer's instructions. TaqMan primers and probes for a region of the US28 gene were designed with the GenScript Real-time PCR (TaqMan) Primer Design software (GenScript). Oligonucleotides sequences were CMV-F: 5′-[…]-3′; CMV-R: 5′-[…]-3′; and CMV-Probe: 5′-[…]-3′. Real-time PCR mixtures consisted of 10 μl the purified DNA, CMV-F at a concentration of 100 nM, CMV-R at a concentration of 300 nM, and CMV-Probe at a concentration of 50 nM in a total volume of 12.5 μl and mixed with 12.5 μl of KAPA PROBE FAST qPCR Master Mix (KAPABiosystems, MA). The PCR cycling protocol was 95° C. for 10 min followed by 40 cycles of 95° C. for 30 sec and 58° C. for 60 sec. Human glyceraldehyde-3-phosphate dehydrogenase (GAPDH) was used as internal control. Oligonucleotides sequences for GAPDH and conditions were those previously reported by Rivera et al.44 For quantification, gene fragment from US28 and GAPDH were cloned into the pGEM-T Easy vector (Promega) and known concentrations of template were used to generate a standard curve in parallel for each experiment. All assays were performed in a C1000 Thermal Cycler apparatus (BioRad).

Data set [4] has as its system wild-type HAdV16. As to the kind of experiment: Virus yield reduction (burst assay, TCID50), HAdV16. It counts as cell-based. The settings on record: 50 μM, A549 cells, 48 h, yield with DMSO divided by yield with compound. On the procedure:
as §1

Data set [5] has as its system A549 cells. As to the kind of experiment: Cytotoxicity assay (alamarBlue cell viability). The settings on record: A549 cells, 48 h; read-out: CC50. It counts as cell-based, Human. Put shortly: (§2)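 Actively dividing A549 cells exposed to compounds for 48 h, then alamarBlue (1/10th in culture medium) added for a further 4 h. CC50 taken as concentration giving 50% cytotoxicity; selectivity index = CC50/IC50, with IC50 from HAdV infection inhibition.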

The nature of data set [6]: Cytotoxicity assay (alamarBlue cell viability). It counts as cell-based, Human. The following applies: human, A549 cells, 48 h. Put shortly: as §2
Data set [7] has as its system HAdV16-GFP. Description: Plaque assay, HAdV16-GFP in 293β5 cells. It counts as cell-based. The following applies: for Selectivity Index (SI) HAdV16: ratio CC50 to IC50, HAdV16. On the procedure:
1.5. Plaque assay. For low MOI infections, active compounds were further evaluated in a plaque assay. 293β5 cells were seeded in 6-well plates at 4×10^5 cells per well in duplicate for each condition. When cells reached 80-90% confluency, they were infected with HAdV5-GFP or HAdV16-GFP (0.06 vp/cell) and rocked for 2 h at 37° C. The inoculum was removed and the cells were washed once with PBS. The cells were then carefully overlaid with 4 ml/well of equal parts of 1.6% […] Difco Agar Noble (Becton, Dickinson & Co, Sparks, MD) and 2× EMEM (BioWhittaker) supplemented with 2x penicillin/streptomycin, 2× L-glutamine and 10% FBS. The mixture also contained compound in concentrations ranging from 5 to 1 μM. Following incubation for 7 days at 37° C., plates were scanned with a Typhoon 9410 imager (GE Healthcare Life Sciences), and plaques were quantified with ImageJ.43

The test system of data set [8] is wild type HAdV5. Description: HAdV5 DNA quantification by real-time PCR. In kind it is cell-based. The following applies: A549, 24 h, A549 cells, 24 h post-infection, qPCR, read-out: Inhibition of HAdV5 DNA replication. On the procedure:
1.6. DNA quantification by real-time PCR. For DNA quantification, A549 cells (150,000 cells/well in a 24 wells-plate) were infected with wild type HAdV5 or HAdV16 (100 vp/cell) and incubated for 2 h at 37° C. in complete DMEM. After the incubation, excess virus was removed and the medium was replaced with 500 μl of complete DMEM containing 50 μM of either compounds or the same volume of DMSO (positive control). All samples were done in triplicate. After 24 h of incubation at 37° C., DNA was purified from the cell lysate with the QlAamp DNA Mini Kit (QIAGEN, Valencia, Calif.) following the manufacturer's instructions. TaqMan primers and probes for a region of the HAdV5 hexon were designed with the GenScript Real-time PCR (TaqMan) Primer Design software (GenScript). Oligonucleotides sequences were AdF: 5′-[…]-3′; AdR: 5′-[…]-3′; and AdProbe: 5′-[…]-3′. […]
Human glyceraldehyde-3-phosphate dehydrogenase (GAPDH) gene was used as internal control. Oligonucleotides sequences for GAPDH and conditions were those previously reported by Rivera et al.44 For quantification, gene fragments from hexon and GAPDH were cloned into the pGEM-T Easy vector (Promega) and known concentrations of template were used to generate a standard curve in parallel for each experiment. […]

With `CC(C)(C)OC(=O)N1CCN(C(=O)Nc2ccc([N+](=O)[O-])cc2)C(c2ccccc2)C1` (stereo not shown) [Compound 46, 4-tert-Butoxycarbonyl-1-[(4-nitrophenyl)aminocarbonyl]-2-phenylpiperazine], in data set [1], the “Virus yield reduction HAdV5” value is on record as 211.7 ± 44.1 fold. In addition, in data set [2], the “Selectivity Index (SI) HAdV5” value is recorded as 47.3, the IC50 is 3.4 ± 0.96 µM and the inhibition at 10 µM was in the range of 96 to 100%. Besides, the inhibition at 50 µM in data set [3] is 99.6 ± 0.39%. In addition, the “Virus yield reduction HAdV16” value in data set [4] was found to be 265.5 ± 29.1 fold. For the same compound, the CC50 in data set [5] came to 161 ± 45.2 µM. In data set [6], this compound had a CC50 at 48 h of 161 ± 45.2 µM. Also, in data set [7], the concentration for half-maximal inhibition (IC50) amounted to 4.8 ± 1.24 µM and the “Selectivity Index (SI) HAdV16” value is given as 33.6.

Consider `N#Cc1ccc(NC(=O)N2CCN(C(=O)c3cc4ccccc4o3)CC2c2ccccc2)cc1` (stereo not shown) [Compound 63, 4-(Benzofuran-2-carbonyl)-1-[(4-cyanophenyl)aminocarbonyl]-2-phenylpiperazine], for which the “Virus yield reduction HAdV5” value in data set [1] is reported as 16.9 ± 5.2 fold. Also, in data set [2], the “Selectivity Index (SI) HAdV5” value turned out to be 42.7, the IC50 was 4.7 ± 0.11 µM and the inhibition at 10 µM was 96 to 100%. In data set [3], the inhibition at 50 µM turned out to be 99.9 ± 0.05%. In addition, the “Virus yield reduction HAdV16” value in data set [4] is listed as 60.9 ± 12.5 fold. For the same compound, the CC50 in data set [5] came to 199.8 ± 0.26 µM. The compound further returned a CC50 at 48 h in data set [6] of 199.8 ± 0.26 µM. Besides, in data set [7], the IC50 was 3.9 ± 1.12 µM and the “Selectivity Index (SI) HAdV16” value is on record as 51.2.

Consider `O=C(c1cc2ccccc2o1)N1CCN(C(=O)Nc2cc(C(F)(F)F)ccc2Cl)C(c2ccccc2)C1` (stereo not shown) [Compound 65, 4-(Benzofuran-2-carbonyl)-1-[(2-chloro-5-trifluoromethylphenyl)aminocarbonyl]-2 phenylpiperazine], for which the inhibition at 50 µM in data set [8] was determined as 33.1 ± 0.5%. In data set [1], the “Virus yield reduction HAdV5” value is listed as 60.3 ± 15.2 fold. In data set [2], the “Selectivity Index (SI) HAdV5” value was determined as 116.2, the IC50 was determined as 1.1 ± 0.05 µM and the inhibition at 10 µM is 96 to 100%. The inhibition at 50 µM in data set [3] came out at 98.2 ± 0.38%. In addition, in data set [4], the “Virus yield reduction HAdV16” value came to 33.2 ± 7.3 fold. Further, the CC50 at 48 h in data set [6] is 131 ± 17.8 µM. For the same compound, in data set [7], 1.8 ± 0.2 µM corresponded to half-maximal inhibition (IC50) and the “Selectivity Index (SI) HAdV16” value turned out to be 72.7.

As to `O=C(c1cc2ccccc2o1)N1CCN(C(=O)Nc2ccccc2[N+](=O)[O-])C(c2ccccc2)C1` (stereo not shown) [Compound 64, 4-(Benzofuran-2-carbonyl)-1-[(2-nitrophenyl)aminocarbonyl]-2-phenylpiperazine], the “Virus yield reduction HAdV5” value in data set [1] came to 34.5 ± 12.6 fold. For the same compound, in data set [2], the “Selectivity Index (SI) HAdV5” value is recorded as 53.3, the IC50 was found to be 2.5 ± 0.03 µM and the inhibition at 10 µM fell in the range of 96 to 100%. Also, the inhibition at 50 µM in data set [3] was found to be 97.9 ± 0.9%. Besides, the “Virus yield reduction HAdV16” value in data set [4] is 46.5 ± 10.8 fold. In data set [5], the CC50 was 132 ± 6.01 µM. In data set [6], this compound displayed a CC50 at 48 h of 132 ± 6.01 µM. Besides, in data set [7], it took 2.3 ± 0.17 µM to reach half-maximal inhibition (IC50) and the “Selectivity Index (SI) HAdV16” value amounted to 57.3.
